Here are results for 27 compounds from patent US4703107A, “Water-soluble acylated derivatives of peptides or amino acids, their preparation and their use” (priority 1983, dated 1987).

Structures are written as SMILES. In brackets after ≈: the same amount, converted by molar mass. Counter-ions that a name gives are not always drawn. Like-named read-outs stand apart in the source and are kept apart here. Where a SMILES comes first, the peptide text is derived from it. The star is where a group is joined. Doxorubicin(3'-N) = COc1cccc2c1C(=O)c1c(O)c3c(c(O)c1C2=O)C[C@@](O)(C(=O)CO)C[C@@H]3O[C@H]1C[C@H](N*)[C@H](O)[C@H](C)O1; dGluconoyl = O=C([C@H](O)[C@@H](O)[C@H](O)[C@H](O)CO)*; NH(9-Et-carbazol-3-yl) = CCn1c2ccccc2c2cc(N*)ccc21; AMC = Cc1cc(=O)oc2cc(N*)ccc12

The test system of series [1] is mice. Put plainly: Toxicity of prodrugs on mice. The settings on record: for Number of surviving mice at day 8 / Number of surviving mice at day 30 / Weight variation at day 8: two intravenous injections at days 0 and 2, mg/kg/injection: ADR 19,7, GlcA-Gly-Pro-Lys-ADR 35,1, GlcA-Ile-Phe-Lys-ADR 37,0; for Apparent lesions: two intravenous injections at days 0 and 2, footnotes to day 30 column. The format is in vivo. An excerpt: GlcA-Gly-Pro-Lys-Adriamycin and GlcA-Ile-Phe-Lys-Adriamycin was studied on mice after two intravenous injections at days 0 and 2.

Series [2] in a line: Solubility in distilled water / aqueous solution. It counts as physicochemical. The settings on record: for solubility in distilled water: at 20° C. The procedure: The solubility of the PHA-L-Ala-L-Ala-L-Pro-L-Ala-AEC is greater than 80 mg/ml in distilled water or a buffer with a pH between 3 and 9.
The solubility of this compound in distilled water is 2.0 mM/l at 20° C.
The influence of the length of the N-acylating polyhydroxyalcanoyl group on the water solubility of fluorogenic substrates is shown in Table III in the case of a chymotrypsin specific substrate PHA-L-Ala-L-Ala-L-Phe-7-amido-4-methylcoumarin.

The conditions of series [3]: pH 8.1, aqueous buffer.
The conditions of series [4]: Table IV; same values as Table I.
[5] abbreviates: Table III, water solubility, 20° C., read-out: SOLUBILITY (mM AT 20° C.).

`COc1cccc2c1C(=O)c1c(O)c3c(c(O)c1C2=O)C[C@@](O)(C(=O)CO)C[C@@H]3O[C@H]1C[C@H](N)[C@H](O)[C@H](C)O1` [ADR, Adriamycin, reference compound]: in series [1], the “Number of surviving mice at day 8” value is reported as 0/8, the “Number of surviving mice at day 30” value is given as 0/8 and the “Weight variation at day 8” value is listed as -17,8%.

The solubility is the dissolved amount per volume that the medium holds. As for `CC(=O)N[C@@H](C)C(=O)N[C@@H](C)C(=O)N[C@@H](Cc1ccccc1)C(=O)Nc1ccc2c(C)cc(=O)oc2c1` [AcAlaAlaPheAMC, reference compound] (Ac-Ala-Ala-Phe-{AMC}), in series [2] (setting [5]), the solubility amounted to 0.2 mM.

`CC[C@H](C)[C@H](NC(=O)OC(C)(C)C)C(=O)N[C@@H](Cc1ccccc1)C(=O)N[C@@H](CCCCN)C(=O)Nc1ccc2c(c1)c1ccccc1n2CC` [Boc--Ile--Phe--Lys--AEC, reference compound] returned a solubility in series [3] of 0.04 mM (≈ 0.028 mg/mL).

In turn, `CCn1c2ccccc2c2cc(NC(=O)[C@H](CCCCN)NC(=O)[C@H](CC(C)C)NC(=O)[C@@H](NC(=O)OC(C)(C)C)C(C)C)ccc21` [Boc--Val--Leu--Lys--AEC, reference compound] returned a solubility in series [3] of 2.5 mM (≈ 1.63 mg/mL).

`CC[C@H](C)[C@H](NC(=O)CNC(=O)[C@H](O)[C@@H](O)[C@H](O)[C@H](O)CO)C(=O)N[C@@H](Cc1ccccc1)C(=O)N[C@@H](CCCCN)C(=O)Nc1ccc2c(c1)c1ccccc1n2CC` [GlcA--Gly--Ile--Phe--Lys--AEC] (dGluconoyl-GIFK-{NH(9-Et-carbazol-3-yl)}) gave a solubility in series [3] of 2.5 mM (≈ 2.08 mg/mL).

Regarding `COc1cccc2c1C(=O)c1c(O)c3c(c(O)c1C2=O)C[C@@](O)(C(=O)CO)C[C@@H]3O[C@H]1C[C@H](NC(=O)[C@H](CCCCN)NC(=O)[C@@H]2CCCN2C(=O)CNC(=O)[C@H](O)[C@@H](O)[C@H](O)[C@H](O)CO)[C@H](O)[C@H](C)O1` [GlcA--Gly--Pro--Lys--ADR, PHA-Gly-L-Pro-L-Lys-Adriamycin], in series [1], the Apparent lesions result is “No apparent lesion”, the “Number of surviving mice at day 8” value was 8/8, the “Number of surviving mice at day 30” value was 8/8 and the “Weight variation at day 8” value is “+15,2%”.

Regarding `CCn1c2ccccc2c2cc(NC(=O)[C@H](CCCCN)NC(=O)[C@@H]3CCCN3C(=O)CNC(=O)[C@H](O)[C@@H](O)[C@H](O)[C@H](O)CO)ccc21` [GlcA--Gly--Pro--Lys--AEC], the solubility in series [3] and in series [4] was 380 mM (≈ 255 mg/mL) throughout.

Consider `CCn1c2ccccc2c2cc(NC(=O)[C@H](CCCNC(=N)N)NC(=O)[C@H](Cc3ccccc3)NC(=O)[C@@H](NC(=O)CNC(=O)[C@H](O)[C@@H](O)[C@H](O)[C@H](O)CO)C(C)C)ccc21` [GlcA--Gly--Val--Phe--Arg--AEC] (dGluconoyl-GVFR-{NH(9-Et-carbazol-3-yl)}), for which the solubility in series [3] and in series [4] was 3.6 mM (≈ 3.05 mg/mL) in each case.

Consider `CCn1c2ccccc2c2cc(NC(=O)[C@H](CCCCN)NC(=O)[C@H](Cc3ccccc3)NC(=O)[C@@H](NC(=O)CNC(=O)[C@H](O)[C@@H](O)[C@H](O)[C@H](O)CO)C(C)C)ccc21` [GlcA--Gly--Val--Phe--Lys--AEC] (dGluconoyl-GVFK-{NH(9-Et-carbazol-3-yl)}), for which the solubility in series [3] and in series [4] was 4.2 mM (≈ 3.44 mg/mL) throughout.

Turning to `CC[C@H](C)[C@H](NC(=O)[C@H](O)[C@@H](O)[C@H](O)[C@H](O)CO)C(=O)N[C@@H](CC(C)C)C(=O)N[C@@H](CCCNC(=N)N)C(=O)Nc1ccc2c(c1)c1ccccc1n2CC` [GlcA--Ile--Leu--Arg--AEC], the solubility in series [3] and in series [4] was 143 mM (≈ 110 mg/mL) throughout.

On to `CC[C@H](C)[C@H](NC(=O)[C@H](O)[C@@H](O)[C@H](O)[C@H](O)CO)C(=O)N[C@@H](CC(C)C)C(=O)N[C@@H](CCCCN)C(=O)Nc1ccc2c(c1)c1ccccc1n2CC` [GlcA--Ile--Leu--Lys--AEC], for which the solubility in series [3] and in series [4] was 94 mM (≈ 69.8 mg/mL) each time.

Regarding `CC[C@H](C)[C@H](NC(=O)[C@H](O)[C@@H](O)[C@H](O)[C@H](O)CO)C(=O)N[C@@H](Cc1ccccc1)C(=O)N[C@@H](CCCNC(=N)N)C(=O)Nc1ccc2c(c1)c1ccccc1n2CC` [GlcA--Ile--Phe--Arg--AEC], the concentration in solution in series [3] (solubility) came to 1.1 mM (≈ 0.885 mg/mL).

Regarding `CC[C@H](C)[C@H](NC(=O)[C@H](O)[C@@H](O)[C@H](O)[C@H](O)CO)C(=O)N[C@@H](Cc1ccccc1)C(=O)N[C@@H](CCCCN)C(=O)N[C@H]1C[C@H](O[C@H]2C[C@](O)(C(=O)CO)Cc3c(O)c4c(c(O)c32)C(=O)c2c(OC)cccc2C4=O)O[C@@H](C)[C@H]1O` [GlcA--Ile--Phe--Lys--ADR, Glc A-L-Ile-L-Phe-L-Lys-Adriamycin], in series [1], the Apparent lesions entry is “No apparent lesion”, the “Number of surviving mice at day 8” value is listed as 8/8, the “Number of surviving mice at day 30” value is on record as 8/8 and the “Weight variation at day 8” value is “+14,7%”.

In series [3], `CC[C@H](C)[C@H](NC(=O)[C@H](O)[C@@H](O)[C@H](O)[C@H](O)CO)C(=O)N[C@@H](Cc1ccccc1)C(=O)N[C@@H](CCCCN)C(=O)Nc1ccc2c(c1)c1ccccc1n2CC` [GlcA--Ile--Phe--Lys--AEC, Glc A-Ile-Phe-Lys-AEC, HCl] returned a solubility of 0.54 mM.

For `CCn1c2ccccc2c2cc(NC(=O)[C@H](CCCCN)NC(=O)CNC(=O)[C@H](CO)NC(=O)[C@H](O)[C@@H](O)[C@H](O)[C@H](O)CO)ccc21` [GlcA--Ser--Gly--Lys--AEC], the solubility in series [3] was 54 mM (≈ 35.7 mg/mL).

On to `CCn1c2ccccc2c2cc(NC(=O)[C@H](CCCNC(=N)N)NC(=O)[C@H](CC(C)C)NC(=O)[C@@H](NC(=O)[C@H](O)[C@@H](O)[C@H](O)[C@H](O)CO)C(C)C)ccc21` [GlcA--Val--Leu--Arg--AEC], for which the solubility in series [3] and in series [4] was 227 mM (≈ 172 mg/mL) each time.

In the case of `CCn1c2ccccc2c2cc(NC(=O)[C@H](CCCNC(=N)N)NC(=O)CNC(=O)[C@H](CC(C)C)NC(=O)[C@@H](NC(=O)[C@H](O)[C@@H](O)[C@H](O)[C@H](O)CO)C(C)C)ccc21` [GlcA--Val--Leu--Gly--Arg--AEC] (dGluconoyl-VLGR-{NH(9-Et-carbazol-3-yl)}), the solubility in series [3] and in series [4] was 67 mM (≈ 54.5 mg/mL) in each case.

As to `CCn1c2ccccc2c2cc(NC(=O)[C@H](CCCCN)NC(=O)CNC(=O)[C@H](CC(C)C)NC(=O)[C@@H](NC(=O)[C@H](O)[C@@H](O)[C@H](O)[C@H](O)CO)C(C)C)ccc21` [GlcA--Val--Leu--Gly--Lys--AEC] (dGluconoyl-VLGK-{NH(9-Et-carbazol-3-yl)}), in series [3], the concentration in solution (solubility) was 62 mM (≈ 48.7 mg/mL).

Turning to `CCn1c2ccccc2c2cc(NC(=O)[C@H](CCCCN)NC(=O)[C@H](CC(C)C)NC(=O)[C@@H](NC(=O)[C@H](O)[C@@H](O)[C@H](O)[C@H](O)CO)C(C)C)ccc21` [GlcA--Val--Leu--Lys--AEC], the solubility in series [3] and in series [4] was 250 mM (≈ 182 mg/mL) in each case.

For the compound `CCn1c2ccccc2c2cc(NC(=O)[C@H](CCCNC(=N)N)NC(=O)[C@H](Cc3ccccc3)NC(=O)[C@@H](NC(=O)[C@H](O)[C@@H](O)[C@H](O)[C@H](O)CO)C(C)C)ccc21` [GlcA--Val--Phe--Arg--AEC], the solubility in series [3] and in series [4] was 100 mM (≈ 79.1 mg/mL) throughout.

Consider `CCn1c2ccccc2c2cc(NC(=O)[C@H](CCCCN)NC(=O)[C@H](Cc3ccccc3)NC(=O)[C@@H](NC(=O)[C@H](O)[C@@H](O)[C@H](O)[C@H](O)CO)C(C)C)ccc21` [GlcA--Val--Phe--Lys--AEC], for which the solubility in series [3] and in series [4] was 165 mM (≈ 126 mg/mL) throughout.

Turning to `CCn1c2ccccc2c2cc(NC(=O)[C@H](C)NC(=O)[C@@H]3CCCN3C(=O)[C@H](C)NC(=O)[C@H](C)NC(=O)[C@H](O)[C@@H](O)[C@H](O)[C@H](O)CO)ccc21` [PHA-L-Ala-L-Ala-L-Pro-L-Ala-AEC] (dGluconoyl-AAPA-{NH(9-Et-carbazol-3-yl)}), the solubility in series [2] (aqueous with cosolvent or surfactant or cyclodextrin, in distilled water or a buffer with a pH between 3 and 9, read-out: solubility) was above 80 mg/mL.

Regarding `COc1cccc2c1C(=O)c1c(O)c3c(c(O)c1C2=O)C[C@@](O)(C(=O)CO)C[C@@H]3O[C@H]1C[C@H](NC(=O)[C@H](CC(C)C)NC(=O)[C@H](CCCNC(=N)N)NC(=O)[C@@H]2CCCN2C(=O)[C@H](Cc2ccccc2)NC(=O)[C@H](O)[C@@H](O)[C@H](O)[C@H](O)CO)[C@H](O)[C@H](C)O1` [PHA-L-Phe-L-Pro-L-Arg-L-Leu-Adriamycin] (dGluconoyl-FPRL-{Doxorubicin(3'-N)}), in series [2] (water), the “solubility in water” value is reported as “soluble in water”.

Turning to `CCn1c2ccccc2c2cc(NC(=O)[C@H](CCCCN)NC(=O)[C@@H]3CCCN3C(=O)CNC(=O)OCc3ccccc3)ccc21` [Z--Gly--Pro--Lys--AEC, reference compound], in series [3], the solubility was found to be 0.2 mM (≈ 0.125 mg/mL).

Consider `CC[C@H](C)[C@H](NC(=O)OCc1ccccc1)C(=O)N[C@@H](Cc1ccccc1)C(=O)N[C@@H](CCCCN)C(=O)Nc1ccc2c(c1)c1ccccc1n2CC` [Z--Ile--Phe--Lys--AEC, reference compound], for which, in series [3], the solubility stood at 0.03 mM (≈ 0.022 mg/mL).

As to `Cc1cc(=O)oc2cc(NC(=O)[C@H](Cc3ccccc3)NC(=O)[C@H](C)NC(=O)[C@H](C)NC(=O)[C@H](O)[C@@H](O)[C@H](O)[C@H](O)CO)ccc12` [gluconoyl-L-Ala-L-Ala-L-Phe-AMC], the solubility in series [2] (setting [5]) was 2.4 mM. For the same compound, the “solubility in distilled water” value in series [2] came to 2.4 mM/l.

As to `Cc1cc(=O)oc2cc(NC(=O)[C@H](Cc3ccccc3)NC(=O)[C@H](C)NC(=O)[C@H](C)NC(=O)C(O)C(O)C(O)C(O)C(O)C(O)CO)ccc12` (stereo partly drawn) [glucooctanoyl-L-Ala-L-Ala-L-Phe-AMC], the solubility in series [2] (setting [5]) turned out to be 3.2 mM. Further, in series [2], the “solubility in distilled water” value is on record as 3.2 mM/l.
